This is an account of results in article PMC10830420, “Structures, functions and adaptations of the human LINE-1 ORF2 protein” (Nature, 2023).

Like-named read-outs stand apart in the source and are kept apart here. A value given as a limit tells only on which side of the number the result lay.

The target in assay [1] is T1, ORF2p core (Homo sapiens, UniProt O00370).
T1 construct: His6-MBP-3C-ORF2p (238-1061, ORFeus-Hs) in pET41; His6-MBP (3C protease site) (N, cleaved yes); made in house; host or cells: E. coli
Put plainly: Homogeneous time-resolved fluorescence (HTRF) ORF2p RT assay. Type of assay: biochemical. Here is the method:
(§1) ORF2p core was preincubated with a template:primer containing a single site for the incorporation of a given nucleotide analogue. The primer/template sequence shown in the panel a illustrates the case of single incorporation of 3TC, with a single G for incorporation; the incoming template sequence for entecavir and carbovir has a single C, and for d4T a single A, each at position labeled “N”. Reactions were incubated for one minute at 37 °C with a 100 nM dNTP mixture and increasing concentrations of listed inhibitors. IC50 index, fold = IC50 (drug, µM) ÷ [dNTP] […] Fluorescein-labeled dNTPs (here, uracil-TP) are incorporated by ORF2p into a biotinylated primer, here shown against a poly(A) template. Detection is then achieved using FRET with a terbium cryptate labeled streptavidin, and the time-resolved technique and time-delayed emission from terbium cryptate reduces background from other fluorescent chemicals in the mix. In the presence of ORF2p RT inhibitors (RTIs), base incorporation is stopped and FRET signal is lost. […]
(§2) ORF2p reverse transcriptase activity assays […]
For HTRF RT assays157, 25 nM ORF2p core and 12. 5 nM t em plat e: primer was incubated at 25°C for 60 minutes
with 10 nM of fluorescein- 12- dUTP (Thermo), 1 µM each (dATP,dCTP,dGTP), and test compound in a 15 µL
reaction with buffer containing 50 mM Tris-HCl, 50 mM KCl, 10 mM MgCl2, 10 mM DTT, pH 8.1, and 1% final

Assay [2] concerns L1 retrotransposition reporter in HeLa cells. The experiment in a line: LINE-1 dual luciferase retrotransposition assay in HeLa cells. Format: cell-based, human. The following applies: for IC50: HeLa cells, stable dual luciferase L1 reporter, normalized to cell viability, n = 3 wells.
Assay [3] concerns the target T1, ORF2p core. Put plainly: Gel-based L1 RT assay, ORF2p core, inhibition by NRTI triphosphates. Format: biochemical. The following applies: 100 nM dNTP mixture; for IC50: NTP forms of NRTIs, one minute at 37 °C. The protocol: as §1, §2
Gel-based RT activity assays consisted of pr e-incubating RTs with annealed DNA/RNA, DNA/DNA, or RNA/RNA 5’- end- radiolabeled or 5’-end-Cy5- o r FAM-labeled template:primer duplex or hybrid duplex and, where indicated, inhibitor in the presence of 0.1- 1 μ M dNTP or NTP mixture, 0.25 mM EDTA, 50 mM NaCl, and 25 mM Tris (pH 8) for 10 min at 37°C. Labeled nucleic acids were purchased from Dharmacon or IDT. Unless otherwise indicated, 15 μL reactions were initiated by the addition of 1.3 mM MgCl2, incubated for 10 min at 37 °C, and then stopped by the addition of 15 μL of formamide/EDTA (25 mM) mixture and incubated at 95 °C for 10 min. 3 μL reaction samples were subjected to denaturing 8 M urea 20% PAGE to resolve products followed by signal quantification (ImageQuant 5.2, GE Healthcare Bio- Sciences) through phosphorimaging (Amersham Typhoon 5, Cytivia). Scanned gel images are […]
minor products; original images are provided in an Extended Data file. […]

Assay [4] deals with T2, human telomerase RT (TERT) (Homo sapiens, UniProt O14746).
T2 construct: of human telomerase RT (TERT) by NRTI triphosphates in a biochemical assay in MCF-7 cell lysate; endogenous in cells; host or cells: MCF-7 cell lysate
T2 sequence (O14746 whole entry): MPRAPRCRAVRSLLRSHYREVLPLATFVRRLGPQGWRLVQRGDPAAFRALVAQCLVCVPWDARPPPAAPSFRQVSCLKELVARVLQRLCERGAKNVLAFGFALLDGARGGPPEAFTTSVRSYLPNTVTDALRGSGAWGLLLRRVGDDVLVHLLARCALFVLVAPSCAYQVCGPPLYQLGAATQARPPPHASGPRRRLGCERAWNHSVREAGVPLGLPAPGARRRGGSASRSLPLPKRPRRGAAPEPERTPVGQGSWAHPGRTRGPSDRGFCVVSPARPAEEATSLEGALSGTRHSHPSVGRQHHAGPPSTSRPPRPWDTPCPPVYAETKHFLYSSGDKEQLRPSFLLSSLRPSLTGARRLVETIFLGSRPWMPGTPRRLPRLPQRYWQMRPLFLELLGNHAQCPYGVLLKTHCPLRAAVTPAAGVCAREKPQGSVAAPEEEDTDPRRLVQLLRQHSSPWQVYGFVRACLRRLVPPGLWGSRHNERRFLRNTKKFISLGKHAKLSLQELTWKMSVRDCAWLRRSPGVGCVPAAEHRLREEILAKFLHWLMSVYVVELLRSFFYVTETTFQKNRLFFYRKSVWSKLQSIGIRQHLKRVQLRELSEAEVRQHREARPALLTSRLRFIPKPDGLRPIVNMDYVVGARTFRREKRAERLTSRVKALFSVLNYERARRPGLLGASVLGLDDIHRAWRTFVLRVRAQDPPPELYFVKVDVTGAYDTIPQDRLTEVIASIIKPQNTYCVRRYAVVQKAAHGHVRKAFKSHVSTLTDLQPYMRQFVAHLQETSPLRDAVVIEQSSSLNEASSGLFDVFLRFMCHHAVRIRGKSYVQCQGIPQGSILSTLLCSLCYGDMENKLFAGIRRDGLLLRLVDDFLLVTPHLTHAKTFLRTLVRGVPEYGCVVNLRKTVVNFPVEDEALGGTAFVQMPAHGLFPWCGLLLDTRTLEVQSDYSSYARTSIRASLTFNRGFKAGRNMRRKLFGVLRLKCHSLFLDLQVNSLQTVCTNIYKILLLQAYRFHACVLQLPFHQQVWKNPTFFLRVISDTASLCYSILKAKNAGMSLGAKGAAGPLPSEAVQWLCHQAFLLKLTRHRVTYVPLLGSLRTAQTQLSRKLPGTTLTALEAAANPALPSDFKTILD
Put plainly: Telomerase activity assay in MCF-7 cell lysate. Particulars: NRTI triphosphates. Format: biochemical.

In assay [5] the test system is interferon production in THP1 cells. The experiment in a line: Interferon reporter assay in THP1 cells (secreted luciferase). Type of assay: cell-based, human. The protocol: Culture Collection ( AT CC); THP1-Dual and THP1- Dual KO-TREX1 cells were from InvivoGen. All cell lines were maintained at 37 °C and 5% CO2 and validated and tested for mycoplasma. All plasmids and affinity reagents are described in Supplementary Tables 4-5 , respectively and available from Addgene at https://www.addgene.org/browse/article/28243724/. […]
Interferon reporter assay in THP1 cells
The type I interferon response was evaluated using THP1 -Dual and THP1-Dual KO-TREX1 cells (InvivoGen), which secrete a Lucia luciferase reporter gene under control of an interferon- responsive promoter. THP1-Dual KO-TREX1 cell were generated by stable biallelic knock-out of the TREX1 gene. Cell were treated with a dose titration of test compound in the presence of 1 µM 5- aza-2ʹ-deoxycytidine (decitabine, Sigma, #189825), which de- represses LINE-1121. Type 1 Interferon and cell viability were assessed after five days of treatment. QUANTI-LUC solution containing stabilizer was added to the cell supernatant and luminescence was measured on a p la t e reader, and cells were assessed for cell viability using CellTiter-Glo (Promega, #G9683) according to the manufacturer’s instructions.
LINE-1 dual luciferase retrotransposition assay
To assess the potency of inhibiting LINE-1 retrotransposon, a stable clonal dual luciferase L1 reporter cell line was generated and reported as described130,133 in the HeLa Tet-On 3G cell line (Takara, ). SB100x161 was used to integrate pRT006.2, a vector similar to pYX056 130 , which contains a bi-directional Tet-On promoter expressing both control Renilla luciferase and LINE-1 ORFeus-Hs Firefly luciferase antisense intron (AI) r epor t er 79,162. A single cell clone was selected with the highest doxycycline-induced luciferase signal vs baseline. Cells were mixed with compounds and induced for reporter expression with 500 ng/mL doxycycline (Sigma, #D9891) for 72 hours. Luminescence was measured using the Dual-Glo Luciferase Assay System (Promega, #E2940) following the manufacturer’s instructions, and the ratio of Firefly to Renilla Luciferase activity was used to measure […]
Telomerase activity assay
The human telomerase assay was performed with telomerase in MCF- 7 cell lysates using the Telo TAGGG Telomerase PCR ELISAplus kit (Roche). Test compounds (NTPs) were serially diluted in water, mixed with 0.2 µg of M CF- 7 lysate, and pre- incubated at room temperature for 15 minutes. Then the reaction was carried out for 30 minutes, amplified using PCR, and visualized colorimetrically per t he manufacturer’s instructions.
Cells were lysed in ice cold RIPA buffer containing 1x protease inhibitor tablet (Thermo), centrifuged for 10 minutes, and clarified lysates were quantified by BCA assay. […]

Setting [6] is: HTRF, NRTIs as triphosphates, n = 3 wells.

The IC50 is the point on the concentration scale where inhibition reaches its midpoint.

As to `Cc1cn([C@H]2CC[C@@H](CO)O2)c(=O)[nH]c1=O` [ddT, dideoxythymidine], the half-inhibitory concentration (IC50) against ORF2p core [1] (HTRF, NRTI NTPs) is less than 0.01 µM.

For the compound `Nc1nc(=O)n([C@@H]2CS[C@H](CO)O2)cc1F` [FTC, emtricitabine], half-maximal inhibition in assay [2] (Homo sapiens, HeLa) (IC50) was put at 1100 nM.

For `C=C1[C@H](CO)[C@@H](O)C[C@@H]1n1cnc2c(=O)[nH]c(N)nc21` [Entecavir, entecavir], at ORF2p core [3], the “IC50 index, fold = IC50 (drug, µM) ÷ [dNTP] (natural counterpart, 0.1 µM)” value came to 5.4 fold and the IC50 is 400 to 600 nM.

Consider `Cc1ccnc2c1NC(=O)c1cccnc1N2C1CC1` [Nevirapine, nevirapine], for which the IC50 is greater than 30000 nM in assay [2] (read-out: IC50) and greater than 1000 µM at ORF2p core [1] (setting [6]). Further, the “inhibition of ORF2p” value against ORF2p core [1] (HTRF, 1 mM) is recorded as “no inhibition”.

Turning to `Cc1cn([C@H]2C=C[C@@H](COP(=O)(O)OP(=O)(O)OP(=O)(O)O)O2)c(=O)[nH]c1=O` [d4T-TP], the half-maximal inhibitory concentration (IC50) in assay [4] came out at 15 µM; against ORF2p core [1] (HTRF, NRTI NTPs), 0.009 µM.

On to `CC(C)OC(=O)[C@H](C)N[P@](=O)(OC[C@H]1O[C@@H](n2ccc(=O)[nH]c2=O)[C@](C)(F)[C@@H]1O)Oc1ccccc1` [Sofosbuvir, sofosbuvir], for which the “inhibition in cell-based L1 assays” value in assay [2] was “no inhibition”. For the same compound, in assay [2] (Homo sapiens, HeLa), the IC50 is greater than 100000 nM.

`CC(C)Nc1cccnc1N1CCN(C(=O)c2cc3cc(NS(C)(=O)=O)ccc3[nH]2)CC1` [Delavirdine, delavirdine] showed an IC50 at ORF2p core [1] (setting [6]) greater than 30 µM.

On to `Cc1cn([C@H]2C[C@H](N=[N+]=[N-])[C@@H](CO)O2)c(=O)[nH]c1=O` [AZT, zidovudine], for which the IC50 in assay [2] (read-out: IC50) is 1800 nM; against ORF2p core [1] (HTRF, NRTI NTPs), 0.2 to 0.75 µM. On ORF2p core [1], the “fold change in ORF2p inhibitory activity compared with ddTTP and d4T” value is listed as “greater than 20 fold”.

Consider `Nc1ncn([C@H]2C[C@H](O)[C@@H](CO)O2)c(=O)n1` [decitabine, 5-aza-2ʹ-deoxycytidine], for which the “interferon (IFN) production” value in assay [5] (1 µM, THP1 monocytes) was “increased”.

For the compound `Cc1cc(C#N)cc(C)c1Oc1nc(Nc2ccc(C#N)cc2)nc(N)c1Br` [Etravirine, etravirine], on ORF2p core [1] (setting [6]), the IC50 was greater than 30 µM.

On to `C[C@H](Cn1cnc2c(N)ncnc21)OCP(=O)(O)O` [Tenofovir, tenofovir], for which the half-inhibitory concentration (IC50) in assay [2] (Homo sapiens, read-out: IC50) was determined as 3200 nM.

In turn, `O=C1Nc2ccc(Cl)cc2[C@@](C#CC2CC2)(C(F)(F)F)O1` [Efavirenz, efavirenz] gave a half-maximal inhibitory concentration (IC50) against ORF2p core [1] (setting [6]) greater than 30 µM.

`Cc1cn(C2C=CC(COP(=O)(OCOC(=O)OC(C)C)OCOC(=O)OC(C)C)O2)c(=O)[nH]c1=O` (stereo not shown) [POC d4T, d4T bis(isopropoxycarbonyloxymethyl)phosphate]: the “baseline and decitabine-induced IFN production” value in assay [5] (10 µM, THP1 cells, 1 µM decitabine) is “reduced IFN further”. The “fold more potent than d4T in suppressing interferon secretion” value in assay [5] (TREX1 knockout THP1 cells, 5 days, 1 µM decitabine) is reported as “approximately 30 fold”.

Regarding `O=C(O)P(=O)(O)O` [Foscarnet, foscarnet], the IC50 on ORF2p core [1] (setting [6]) was greater than 100 µM.

Regarding `Cc1cc(/C=C/C#N)cc(C)c1Nc1ccnc(Nc2ccc(C#N)cc2)n1` [Rilpivirine, rilpivirine], the 50% inhibitory concentration (IC50) against ORF2p core [1] (setting [6]) was greater than 30 µM.

Regarding `Nc1nc2c(ncn2[C@H]2C=C[C@@H](CO)C2)c(=O)[nH]1` [Carbovir, carbovir], at ORF2p core [3], the “IC50 index, fold = IC50 (drug, µM) ÷ [dNTP] (natural counterpart, 0.1 µM)” value is listed as 64 fold and the IC50 was 5000 to 7000 nM.
